Experimental data reported in patent publication US9085582B2, “Benzotriazolodiazepine compounds inhibitors of bromodomains” (GlaxoSmithKline LLC, priority 2010, dated 2015).

Each compound was assayed on IL-6 (assay: Measurement of LPS induced IL-6 secretion from whole blood). Conditions: LPS 200 ng/ml stimulated whole blood, 24 hours, IL-6 by immunoassay.
Format: cell-based
Method: Measurement of LPS Induced IL-6 Secretion from Whole Blood
Activation of monocytic cells by agonists of toll-like receptors such as bacterial lipopolysaccharide (LPS) results in production of key inflammatory mediators including IL-6. Such pathways are widely considered to be central to the pathophysiology of a range of auto-immune and inflammatory disorders.
Compounds to be tested are diluted to give a range of appropriate concentrations of which 1 ul of the diluted stocks is added to a 96 well plate. Following addition of whole blood (130 ul) the plates are incubated at 37 degrees (5% CO2) for 30 min before the addition of 10 ul of 2.8 ug/ml LPS, diluted in complete RPMI 1640 (final concentration=200 ng/ml), to give a total volume of 140 ul per well. After further incubation for 24 hours at 37 degrees, 140 ul of PBS are added to each well. The plates are sealed, shaken for 10 minutes and then centrifuged (2500 rpm×10 min). 100 ul of the supernatant are removed and IL-6 levels assayed by immunoassay (typically by MesoScale Discovery technology) either immediately or following storage at −20 degrees. Concentration response curves for each compound was generated from the data and an IC50 value was calculated
CCNC(=O)C[C@@H]1N=C(c2ccc(Cl)cc2)c2cc(-c3ccccc3)ccc2-n2c(C)nnc21 [Example 1, 2-[(4S)-6-(4-Chlorophenyl)-1-methyl-8-phenyl-4H-[1,2,4]triazolo[4,3-a][1,4]benzodiazepin-4-yl]-N-ethylacetamide] was tested, and the IC50 was at most 3.16 µM.
With CCNC(=O)C[C@@H]1N=C(c2ccc(Cl)cc2)c2cc(-c3ccc(OC)cc3)ccc2-n2c(C)nnc21 [Example 3, 2-{(4S)-6-(4-Chlorophenyl)-1-methyl-8-[4-(methyloxy)phenyl]-4H-[1,2,4]triazolo[4,3-a][1,4]benzodiazepin-4-yl}-N-ethylacetamide] the IC50 was at most 3.16 µM.
CCNC(=O)C[C@@H]1N=C(c2ccc(Cl)cc2)c2cc(-c3ccn[nH]3)ccc2-n2c(C)nnc21 [Example 4, 2-[(4S)-6-(4-Chlorophenyl)-1-methyl-8-(1H-pyrazol-5-yl)-4H-[1,2,4]triazolo[4,3-a][1,4]benzodiazepin-4-yl]-N-ethylacetamide] was tested, and the IC50 was at most 3.16 µM.
CCNC(=O)C[C@@H]1N=C(c2ccc(Cl)cc2)c2cc(-c3cn[nH]c3)ccc2-n2c(C)nnc21 [Example 5, 2-[(4S)-6-(4-Chlorophenyl)-1-methyl-8-(1H-pyrazol-4-yl)-4H-[1,2,4]triazolo[4,3-a][1,4]benzodiazepin-4-yl]-N-ethylacetamide] was tested, and the IC50 was at most 3.16 µM.
Work on CCNC(=O)C[C@@H]1N=C(c2ccc(Cl)cc2)c2cc(-c3ccc(CN4CCCC4)cc3)ccc2-n2c(C)nnc21 [Example 13, (S)-2-(6-(4-Chlorophenyl)-1-methyl-8-(4-(pyrrolidin-1-ylmethyl)phenyl)-4H-benzo[f][1,2,4]triazolo[4,3-a][1,4]diazepin-4-yl)-N-ethylacetamide] yielded an IC50 of at most 3.16 µM.
